This is an account of results in US7875599B2, “C-17-heteroaryl steroidal CYP17 inhibitors/antiandrogens, in vitro biological activities, pharmacokinetics and antitumor activity” (University of Maryland, priority 2005, dated 2011).

The test system of assay [1] is LAPC4 human prostate tumor xenograft. Nature of the assay: LAPC4 xenograft, first experiment (established tumors, 4 weeks of treatment). Conditions: 28 days. In kind it is in vivo, mouse. The protocol: In the first experiment, the effect of compounds 5 and 6 on the growth of well-established LAPC4 prostate cancer tumors in SCID mice is determined, and castration is used as the reference treatment. Tumor-bearing mice are assigned (n=5/group) to receive one of two doses of 5 or 6 (0.15 mmol/kg once-daily or 0.15 mmol/kg twice-daily). Tumor volumes are measured weekly and compared with controls receiving vehicle or castrated mice.
In Vivo Antitumor Studies (LAPC-4 Prostate Cancer Xenografts): All animal studies are performed according to the guidelines and approval of the Animal Care Committee of the University of Maryland School of Medicine, Baltimore. Male severe combined immunodeficient (SCID) mice 4-6 weeks of age purchased from the National Cancer Institute-Frederick Cancer Research and Development Center (Fredrick, Md.) are housed in a pathogen-free environment under controlled conditions of light and humidity and allowed free access to food and water. Tumors are developed from LAPC4 cells inoculated subcutaneously (s.c.) in the mice essentially as previously described (21). LAPC4 cells are grown in IMEM with 15% FBS plus 1% PS and 10 nm DHT until 80% confluent. Cells are scraped into DPBS, collected by centrifugation, and resuspended in Matrigel (10 mg/ml) at 3×10^7 cells/ml. Mice are injected s.c. with 100 μl of the cell suspension at one site on each flank. Tumors are measured weekly with calipers, and tumor volumes are calculated by the formula: […]).
In the first experiment, LAPC4 tumors are allowed to grow for 8-10 weeks following inoculation. […] Mice are castrated under methoxyfluorane anesthesia. Compounds 5 and 6 were prepared at 17.2 mg/ml in a 0.3% solution of hydroxypropyl cellulose in saline, and mice receiv s.c. injections daily. Control and castrated mice are treated with vehicle only. Tumors are measured weekly for the 4 weeks of treatment and tumor volumes are calculated. At the end of the treatment period, the animals are sacrificed under halothane anesthesia; tumors are excised, weighed and stored at −80° C. Animals are also weighed weekly and monitored for general health status and signs of possible toxicity due to treatment.
FIG. 6: In vivo antitumor activity of 5, 6 and orchidectomy on the growth of LAPC4 prostate tumors in male SCID mice. Groups of five mice with LAPC-4 tumors were treated with 5 (0.15 mmol/kg/day or 0.30 mmol/kg/day. Tumors volumes were measured weekly, and the percentage of change in tumor volume was determined after 28 days of treatment. The standard deviations of tumor volumes (not shown) were ±10-12% of the mean values.

Assay [2] concerns the target T1, human 5α-reductase type 1 (Homo sapiens, UniProt P18405).
T1 sequence (P18405 1-259): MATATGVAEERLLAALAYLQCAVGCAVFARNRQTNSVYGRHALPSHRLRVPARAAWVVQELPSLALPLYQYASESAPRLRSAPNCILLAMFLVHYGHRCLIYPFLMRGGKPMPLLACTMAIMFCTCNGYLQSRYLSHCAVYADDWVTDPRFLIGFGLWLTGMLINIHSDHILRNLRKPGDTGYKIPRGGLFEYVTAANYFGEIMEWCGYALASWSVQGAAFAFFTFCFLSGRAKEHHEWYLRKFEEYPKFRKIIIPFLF
Nature of the assay: Human 5α-reductase type 1 assay (DU-145 cell line).

Assay [3] deals with T2, human 5α-reductase type 2 (Homo sapiens, UniProt P31213).
T2 sequence (P31213 1-254): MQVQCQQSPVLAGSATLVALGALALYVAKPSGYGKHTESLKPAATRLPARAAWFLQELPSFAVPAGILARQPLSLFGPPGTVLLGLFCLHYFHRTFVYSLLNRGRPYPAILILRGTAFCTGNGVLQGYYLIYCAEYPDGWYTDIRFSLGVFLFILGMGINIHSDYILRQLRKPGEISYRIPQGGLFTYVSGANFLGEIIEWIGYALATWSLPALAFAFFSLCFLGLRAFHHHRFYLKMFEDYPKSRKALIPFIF
The experiment in a line: Human 5α-reductase type 2 assay (BPH tissue homogenate).

The next assay addresses T3, CYP17 (Homo sapiens, UniProt P05093).
T3 sequence (P05093 1-508): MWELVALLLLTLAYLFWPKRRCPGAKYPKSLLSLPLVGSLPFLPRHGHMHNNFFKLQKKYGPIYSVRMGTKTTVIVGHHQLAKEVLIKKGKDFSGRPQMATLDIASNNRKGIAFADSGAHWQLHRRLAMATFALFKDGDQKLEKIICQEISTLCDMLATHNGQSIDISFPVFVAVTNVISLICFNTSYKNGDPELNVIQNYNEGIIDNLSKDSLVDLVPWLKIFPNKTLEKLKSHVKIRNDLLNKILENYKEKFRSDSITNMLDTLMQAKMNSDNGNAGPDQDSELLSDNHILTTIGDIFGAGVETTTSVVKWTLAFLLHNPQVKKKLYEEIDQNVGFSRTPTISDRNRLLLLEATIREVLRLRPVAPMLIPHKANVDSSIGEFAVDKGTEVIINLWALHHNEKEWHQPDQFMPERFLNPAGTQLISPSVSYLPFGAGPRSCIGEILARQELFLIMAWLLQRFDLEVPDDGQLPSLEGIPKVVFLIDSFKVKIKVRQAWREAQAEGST
The experiment in a line: CYP17 inhibition, acetic acid releasing assay with intact P450c17-expressing E. coli.

Each structure is given as a SMILES string. Entries after “also recorded” stand apart in the source; their conditions may differ.

As a reminder, the IC50 is the concentration needed to halve the response being measured. In the case of `C[C@]12CCC(=O)C=C1CC[C@@H]1[C@@H]2CC[C@]2(C)C(n3cnc4ccccc43)=CC[C@@H]12` [Compound 6, 17-(1H-benzimidazol-1-yl)androsta-4,16-diene-3-one], the “reduction of average final tumor volume compared to vehicle-treated control” value in assay [1] (0.15 mmol/kg once daily s.c.) is “ineffective”; in assay [1] (0.15 mmol/kg twice daily s.c.), “stimulation of tumor growth; also recorded: enhances tumor growth”. In addition, the IC50 in assay [2] came out at 770 nM; in assay [3] it was 480 nM; against CYP17, 915 nM.
As usually defined, the inhibition is the share of the control response that was lost under treatment. `C[C@]12CC[C@H](O)CC1=CC[C@@H]1[C@@H]2CC[C@]2(C)C(n3cnc4ccccc43)=CC[C@@H]12` [Compound 5, 3β-Hydroxy-17-(1H-benzimidazol-1-yl)androsta-5,16-diene]: the “reduction of average final tumor volume compared to vehicle-treated control” value in assay [1] (0.15 mmol/kg once daily s.c.) is recorded as 41%; in assay [1] (0.15 mmol/kg twice daily s.c.) it was 86.5%. Also, the inhibition at 10 µM turned out to be 4% in assay [2] (read-out: 5α-Reductase type 1 % inhibition at 10 μM) and 53% in assay [3] (read-out: 5α-Reductase type 2 % inhibition at 10 μM). Besides, inhibition against CYP17 was half-maximal at 300 nM (IC50).
